Data from US10857112B2, “Small molecule inhibitors of RNA binding motif (RBM) proteins for the treatment of acute cellular injury” (University of Pittsburgh—Of the Commonwealth System of …, priority 2012, dated 2020).

Assays:
mice = conditions: intraperitoneal; cited from earlier work
[1] = test system: primary rat neurons, astrocytes, and cerebral endothelial cells; conditions: cited from earlier work
caspase3/7 = experiment: Stretch injury induced caspase3/7 activity; type: cell-based, rat; conditions: 75 μM pre-treated 30 minutes; 24 hours after injury
Method: (§1) Rat cortical neurons are isolated from E16 embryos, and plated on silicone membranes (with defined elastic properties) held in a custom made stainless steel chamber. DIV 7-9 neurons are subjected to a (computer controlled) preset stretch injury; strain rate 10 s^−1 and 50% membrane deformation. AQ2S or DMSO (vehicle control) was added before (pre-treatment) or after post-treatment) injury, Cell death was assayed ˜24 hours after injury by measuring 1) extracellular LDH in the culture media (released from dying/dead cells), 2) caspase-3/7 activation (a protease involved in execution of cell death), and 3) MTT metabolism (a reagent metabolized by living cells).
Caspase activation plays a role in cell death after TBI. Primary rat cortical neurons were grown on a custom made stretch-injury device (An in vitro model of TBI). Neurons were pre-treated with 75 μM AQ2S or vehicle only (DMSO control) for 30 minutes, and subjected to a defined stretch injury. 24 hours after injury caspase3/7 activity was measured. […] (C) In a third experiment, AQ2S was administered 30 minutes before (pre-treatment) or 30 minutes after (post-treatment) stretch-TBI (FIG. 19C) (Experiment 3, n=3/treatment). Data was analyzed using ANOVA and Fisher LSD post-hoc test. Data is significant at (*) p<0.05. Graphs show Mean+SEM.

[2] = test system: extracellular regulated kinase (ERK); experiment: Western blot of ERK activation; type: cell-based, rat; conditions: 125 μM; 17 hours STS
Method: To determine the specificity of AQ2S mediated signaling changes, extracellular regulated kinase (ERK) was also examined. 17 hours STS abolished ERK activation.
Neurons used for Western blot analysis for grown in 6-well plates. Briefly, neurons were treated with experimental compounds for the indicated time/conditions. At the end of each experiment, neurons were washed in ice cold PBS and harvested in 65 μL RIPA buffer containing protease inhibitors, phosphatase inhibitors, and EDTA. Extracts were collected in 0.5 mL tubes and sonicated for 20-30 seconds. Cell extracts were then spun at 4° C./16,000 g/10 minutes and stored at −80° C. until use. Frozen extracts were thawed on ice and protein concentration measured using the BCA assay (PIERCE). […] of sample protein was loaded per well of a 7.5% SDS precast gel (Biorad), and run for 30 minutes to 1 hour at 200 V. Kaleidoscope protein standards (Biorad) were run parallel to neuron extracts. Proteins were then transferred to PDVF membranes (run at 100 V/4° C./1.5 hours). PDVF membranes were washed once in tris buffered saline (TBS) and blocked for 1 hour in tris buffered saline/tween-20 with 7.5% nonfat milk (TBS-T/milk). Blots were incubated overnight at 4° C. with primary antibodies in TBS-T/milk. Cell Signaling Technology: phospho-AKT473, AKT Total, phospho-ERK1/2, ERK Total, cleavage caspase-3. […]

[3] = test system: primary rat cortical neurons; experiment: STS injury, neuronal viability and cytotoxicity
Method: At D.I.V. 11, ½ media was collected (conditioned media) and mixed with an equal volume fresh neurobasal media (to make the 24 hour treatment media). STS was prepared at the desired concentration in treatment media, with or without experimental drugs (AQ2S or LY294002). The remaining growth maintenance media was replaced with 100 μL, of treatment media per well of a 96-well plate (or 2 mL for a six-well plate) for 24 hours.
The LDH Cytotoxicity Assay Kit II was purchased from Abcam (Cambridge, Mass., USA). Neurons were cultured in 96-well format and subjected to STS injury ±AQ2S for 24 hours (in 100 μL, total media volume). At 23 hours maximum LDH release (positive control) was prepared by adding 10 μL, cell lysis reagent directly to a few non-injured wells (i.e., no STS or AQ2S). At the end of the 24 hour injury period, 80 μL, of media was transferred to a new 96-well plate. Plates were spun at ˜500 g for 5 minutes. 10 μL, of cell culture treatment media was added to a new black-walled plate and advanced WST detection reagent added. The mix was incubated for ˜15 minutes and absorbance measured (OD 450 nm). Fresh culture media was used as a negative control. Cytotoxicity was calculated using the standard formula: cytotoxicity %=(sample LDH−negative-control LDH)/(maximum LDH release−negative-control LDH)×100.

[4] = test system: C57BL6 mice, severe CCI brain injury; experiment: Controlled cortical impact (TBI) injury, hippocampal volume; type: in vivo
Method: AQ2S was prepared in 2% DMSO in PBS (i.e. vehicle). C57BL6 mice were administered a severe CCI brain injury. Severe brain trauma was induced by a pneumatic impactor device that delivers a defined cortical injury (impact depth, 1.6 mm; impact velocity, 5 m/s). 15 minutes after injury animals were given a 5 μL intracerebroventricular injection with either vehicle (n=7) or 500 μM AQ2S (n=7). The 5 μL injection volume was delivered at a rate of 0.5 μL/minute. […] A second vehicle or AQ2S injection was administered 24 hours after injury. […] 3 days after injury animals were sacrificed, perfused with a fixative, brains sectioned, and stained with hematoxylin and eosin (H&E). Images were captured using a light microscope and camera.
Mice were given surgical/treatment protocols and hippocampal tissue analyzed 3 days later. […] (D) Left (injured) and right (non-injured) hippocampal volumes were quantified for each mouse; sham (n=5), vehicle CCI injury (n=7), and AQ2S CCI injury (n=7). FIG. 23D show left hippocampal volumes (expressed as % of uninjured right hippocampus).

[5] = test system: primary rat cortical neurons; experiment: AQ2S alone on fluorescent and luminescent viability assays (luciferase interference); type: cell-based
Method: To test if AQ2S mediated inhibition of caspase3/7 was artifact, the effect of different AQ2S concentrations on 2 different cell viability tests were compared (one test fluorometric and the other luminescent). AQ2S was incubated at the indicated concentrations for 24 hours. After 24 hours, the cell viability reagent was added and cell survival assayed. […] Finally, to replicate the exact experimental conditions used in injury studies, neurons were first incubated with the CellTiter Blue reagent for 2 hours. Subsequently, the viability-GLO reagent was added for 1 hour and luminescence measured (i.e. viability reagents were mixed together; FIG. 11C).

[6] = target: T1, recombinant active caspase-3 (Homo sapiens, UniProt P42574); experiment: In vitro cell-free caspase-3 drug screening assay (DEVD-AFC); type: biochemical
T1 construct: The reaction mixture was combined with recombinant active caspase-3 and a DEVD-AFC probe; purchased PromoKine (Heidelberg, Germany)
T1 sequence (P42574 29-175 limits assumed): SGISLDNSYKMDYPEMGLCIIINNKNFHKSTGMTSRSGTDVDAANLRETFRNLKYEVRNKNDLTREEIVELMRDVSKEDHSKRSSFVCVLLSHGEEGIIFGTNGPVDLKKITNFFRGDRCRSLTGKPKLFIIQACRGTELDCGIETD
T1 sequence (P42574 176-277 limits assumed): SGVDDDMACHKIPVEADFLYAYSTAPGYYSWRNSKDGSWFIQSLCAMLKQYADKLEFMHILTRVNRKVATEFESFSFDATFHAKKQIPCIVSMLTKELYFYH
Method: An in vitro caspase drug screening kit was purchased from PromoKine (Heidelberg, Germany), and used according to the manufacturer's instructions. Briefly, all drugs were dissolved in DMSO and diluted in double-distilled water to desired concentration. The reaction mixture was combined with recombinant active caspase-3 and a DEVD-AFC probe. Active caspase-3 cleaves the DEVD-recognition sequence and releases fluorescent AFC. The amount of AFC detected is a measure of caspase-3 activity. Reactions were prepared in black-walled 96-well plates, incubated at 37° C., and AFC release measured with an AFC filter (Ex: 405 nm, Em: 495-505 nM) on a GLOMax-Multi Microplate Reader (Promega).

[7] = test system: primary rat cortical neurons; experiment: Stretch injury (in vitro TBI), LDH release and MTT metabolism; type: cell-based; conditions: 24 hours after injury
Method: as §1
LDH is released by dying or injured cells. Primary rat cortical neurons were grown on a custom made stretch-injury device (An in vitro model of TBI). Neurons were pre-treated with 75 μM AQ2S or vehicle only (DMSO control) for 30 minutes, and subjected to a defined stretch injury. 24 hours after injury LDH levels were measured. […] Data was analyzed using a T-test; ***p<0.0001. […]
(3-(4,5-Dimethylthiazol-2-yl)-2,5-diphenyltetrazolium bromide; MTT) is metabolized in living but not dying cells. […] MTT metabolism was measured 24 hours after injury. […] Data was analyzed using ANOVA and Fisher LSD post-hoc test. […]

[8] = 150 nM STS 24 hours, co-treatment 75 μM

Q: For `O=C1c2ccccc2C(=O)c2cc(S(=O)(=O)O)ccc21` [AQ2S, anthraquinone-2-sulfonic acid], which “Acute LD50” value (mice) is on record?
A: Its value is 630 mg/kg.

Q: What about the “superoxide anion (O2^−) levels” value ([1]; 980 μM, over 60 minute) of the same compound?
A: The value was “significantly upregulated superoxide anion (O2^−) levels”.

Q: What about the toxicity ([1]; 980 μM) of the same compound?
A: Its toxicity is “lack of toxicity”.

Q: And the cell viability ([1]; 5000 μM)?
A: The cell viability was 50%.

Q: What about the “stretch injury induced caspase3/7 activity” value (caspase3/7) of the same compound?
A: Its value is “significantly reduced caspase activation”.

Q: What about the ERK activation [2] of the same compound?
A: Its ERK activation is “did not prevent STS-mediated ERK inhibition”.

Q: What about the “STS injury, LDH release” value [3, 8] of the same compound?
A: The value was “significantly reduced 24 hour STS injury”.

Q: What about the “STS injury, cellular ATP levels (GLO-Viability Assay)” value [3, 8] of the same compound?
A: The value was “significantly reduced 24 hour STS injury”.

Q: And the “STS injury, live-cell protease activity (CellTiter-Fluor)” value [3, 8]?
A: The value was “significantly reduced 24 hour STS injury”.

Q: What about the “STS injury, resazurin metabolism (CellTiter Blue)” value [3, 8] of the same compound?
A: The value was “significantly reduced 24 hour STS injury”.

Q: And the “reduction in viability compared with non-injured controls” value ([3]; 250 nM STS 24 hours, AQ2S-treated neurons)?
A: The value was 17.6%.

Q: And the “cell death after STS” value ([3]; 250 nM STS 24 hours, co-treatment 75 or 125 μM)?
A: The value was “significantly reduced cell death”.

Q: What about the “cell viability, comparison of neuroprotectants” value ([3]; 250 nM STS co-administered 24 hours) of the same compound?
A: The value was “increased cell viability”.

Q: What about the “neuronal viability, high dose STS” value ([3]; 500 nM STS 24 hours, co-treatment 125 μM and 150 μM) of the same compound?
A: Its value is “significantly (but only slightly) increased neuronal viability”.

Q: And the “baseline viability or cytotoxicity” value ([3]; compound alone, no STS, 75 μM, 24 h)?
A: The value was “did not significantly alter baseline viability or cytotoxicity”.

Q: And the “concentration of maximal protection” value ([3]; neuroprotection in neuron injury assays)?
A: The value was 75 to 125 µM.

Q: What about the “left hippocampal volume (% of uninjured right hippocampus)” value ([4]; 5 μL 500 μM intracerebroventricular 15 minutes and 24 hours after CCI, 3 days) of the same compound?
A: Its value is “not significantly (N.S.) different from Sham animals”.

Q: What about the estimated final tissue AQ2S concentration ([4]; 5 μL of 500 μM icv, extrapolated from total CSF volume in mice (35 μL), unit of the source corrected) of the same compound?
A: The estimated final tissue AQ2S concentration was roughly 71 µM.

Q: What about the “decrease in luminescent signal compared to DMSO controls” value ([5]; CellTiter Blue and viability-GLO reagents combined) of the same compound?
A: The value was 13-17%.

Q: And the “viability, fluorometric CellTiter Blue assay” value ([5]; compound alone 24 hours, all concentrations used)?
A: The value was “none of the AQ2S concentrations used inhibited viability below control levels”.

Q: And the “activity of recombinant caspase-3” value [6]?
A: The value was “significantly reduced the activity of recombinant caspase-3”.

Q: And the “stretch injury induced LDH release (neuronal death)” value ([7]; 75 μM pre-treated 30 minutes)?
A: The value was “significantly reduced neuronal death”.

Q: And the “MTT metabolism after stretch injury” value ([7]; 30 minutes before or 30 minutes after injury)?
A: Its value is “increased by pre- or post-treatment with AQ2S”.
